# Patent US20030225152A1, “3-(Arylamino)methylene-1, 3-dihydro-2h-indol-2-ones as kinase inhibitors” (priority 2001, published 2003)
# pIC50: −log10 of the molar value.
# Columns and labels:
# [1] = system: VEGF induced increases in intracellular calcium levels in HUVEC (human umbilical vein endothelial cells); assay: VEGF Stimulated Ca++ Signal in vitro (FLIPR); format: cell-based; conditions: VEGF 5 ng/mL; for pIC50: 0.01 to 10.0 μM
# Summary of the method: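 HUVEC loaded with Fluo-4 (45 min, 37° C.), washed, then pre-incubated 30 min with compound (10 μM single dose or 0.01–10.0 μM; 0.1% DMSO) before 5 ng/mL VEGF. Fluorescence at 516 nm read by FLIPR; IC50 from % inhibition of max-min VEGF response.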
# [2] = target: T1, cytoplasmic domain of the human VEGF receptor (VEGFR-2) (Homo sapiens, UniProt P35968); assay: KDR Assay; format: biochemical; conditions: His-VEGFR-2; 3.6 μM ATP
# T1 construct: The cytoplasmic domain of the human VEGF receptor (VEGFR-2) was expressed as a Histidine-tagged fusion protein; Histidine tag
# T1 sequence (P35968 786-1356): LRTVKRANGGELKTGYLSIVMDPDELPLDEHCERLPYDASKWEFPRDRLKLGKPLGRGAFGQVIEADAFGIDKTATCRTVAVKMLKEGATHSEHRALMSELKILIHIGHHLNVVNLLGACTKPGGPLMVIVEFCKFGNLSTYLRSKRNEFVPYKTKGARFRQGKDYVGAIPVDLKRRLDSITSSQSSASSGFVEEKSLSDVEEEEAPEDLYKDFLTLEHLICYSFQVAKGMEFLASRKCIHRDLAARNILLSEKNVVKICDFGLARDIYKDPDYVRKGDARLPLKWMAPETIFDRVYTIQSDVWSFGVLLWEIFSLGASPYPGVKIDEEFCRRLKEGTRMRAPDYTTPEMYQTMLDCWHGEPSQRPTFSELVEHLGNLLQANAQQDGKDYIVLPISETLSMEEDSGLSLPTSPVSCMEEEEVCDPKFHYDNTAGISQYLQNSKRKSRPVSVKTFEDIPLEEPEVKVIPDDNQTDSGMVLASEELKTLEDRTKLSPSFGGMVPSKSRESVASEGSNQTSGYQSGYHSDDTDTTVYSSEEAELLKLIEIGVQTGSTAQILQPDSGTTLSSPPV
# Summary of the method: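 His-tagged human VEGFR-2 cytoplasmic domain from baculovirus-infected insect cells, acting on poly-Glu-Tyr (4:1)-coated plates with 3.6 μM ATP in Hepes pH 7.4 with MgCl2/MnCl2 and 5% final DMSO, 10 min at 25 °C. Phosphotyrosine detected by peroxidase-conjugated antibody ELISA at 492 nm; IC50 from blank-subtracted OD versus concentration.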
SMILES,pIC50 [2],inhibition at 10 µM ([1]; Homo sapiens),pIC50 ([1]; Homo sapiens),pIC50 [1]
"CCOC(=O)Nc1ccc(NC=C2C(=O)Nc3ccccc32)cc1O [Example 134, {2-Hydroxy-4-[(2-oxo-1,2-dihydro-indol-3-ylidenemethyl)-amino]-phenyl}-carbamic acid ethyl ester]",5.95,83.1%,5.13,–
"COc1ccc(NC=C2C(=O)Nc3cccc(C)c32)c(F)c1 [Example 135, 3-[(2-Fluoro-4-methoxy-phenylamino)-methylene]-4-methyl-1,3-dihydro-indol-2-one]",5.11,28%,–,–
"CSc1ccc(NC=C2C(=O)Nc3ccccc32)cc1 [Example 136, 3-[(4-Methylsulfanyl-phenylamino)-methylene]-1,3-dihydro-indol-2-one]",6.31,63.7%,5.68,–
"CSc1ccc(NC=C2C(=O)Nc3cccc(C)c32)cc1 [Example 137, 4-Methyl-3-[(4-methylsulfanyl-phenylamino)-methylene]-1,3-dihydro-indol-2-one]",6.57,65.4%,5.78,–
"O=C(O)CCCc1ccc(NC=C2C(=O)Nc3ccccc32)cc1 [Example 139, 4-{4-[(2-Oxo-1,2-dihydro-indol-3-ylidenemethyl)-amino]-phenyl}-butyric acid]",6.28,99.3%,5.79,–
"Cc1cccc2c1C(=CNc1ccc(CCCC(=O)O)cc1)C(=O)N2 [Example 140, 4-{4-[(4-Methyl-2-oxo-1,2-dihydro-indol-3-ylidenemethyl)-amino]-phenyl}-butyric acid]",6.40,96.9%,–,–
"O=C(O)CCc1cccc(NC=C2C(=O)Nc3ccccc32)c1 [Example 141, 3-{3-[(2-Oxo-1,2-dihydro-indol-3-ylidenemethyl)-amino]-phenyl}-propionic acid]",6.29,92.6%,5.53,–
"Cc1cccc2c1C(=CNc1cccc(CCC(=O)O)c1)C(=O)N2 [Example 142, 3-{3-[(4-Methyl-2-oxo-1,2-dihydro-indol-3-ylidenemethyl)-amino]-phenyl}-propionic acid]",6.68,99.3%,5.38,–
"O=C(O)CCc1ccc(NC=C2C(=O)Nc3ccccc32)cc1 [Example 144, 3-{4-[(2-Oxo-1,2-dihydro-indol-3-ylidenemethyl)-amino]-phenyl}-propionic acid]",6.34,96.5%,5.57,–
"Cc1cccc2c1C(=CNc1ccc(CCC(=O)O)cc1)C(=O)N2 [Example 145, 3-{4-[(4-Methyl-2-oxo-1,2-dihydro-indol-3-ylidenemethyl)-amino]-phenyl}-propionic acid]",6.72,98.7%,≥ 6.00,6.23
"O=C(O)CCc1ccc(NC=C2C(=O)Nc3ccc(Cl)cc32)cc1 [Example 146, 3-{4-[(5-Chloro-2-oxo-1,2-dihydro-indol-3-ylidenemethyl)-amino]-phenyl}-propionic acid]",6.29,98.4%,5.68,–
"CCc1cccc(NC=C2C(=O)Nc3cccc(C)c32)c1 [Example 147, 3-[(3-Ethyl-phenylamino)-methylene]-4-methyl-1,3-dihydro-indol-2-one]",6.82,71.6%,5.26,–
"O=C(O)CCCc1ccc(NC=C2C(=O)Nc3ccc(Cl)cc32)cc1 [Example 150, 4-{4-[(5-Chloro-2-oxo-1,2-dihydro-indol-3-ylidenemethyl)-amino]-phenyl}-butyric acid]",6.52,90.9%,5.73,–
"CCc1ccc(NC=C2C(=O)Nc3cccc(C)c32)cc1 [Example 151, 3-[(4-Ethyl-phenylamino)-methylene]-4-methyl-1,3-dihydro-indol-2-one]",6.34,50.8%,–,–
"O=C1Nc2ccccc2C1=CNc1ccc(N2CCCCC2)cc1 [Example 158, 3-[(4-Piperidin-1-yl-phenylamino)-methylene]-1,3-dihydro-indol-2-one]",6.41,97.5%,5.94,–
"CCN(CC)Cc1cc(NC=C2C(=O)Nc3ccccc32)ccc1O [Example 160, 3-[(3-Diethylaminomethyl-4-hydroxy-phenylamino)-methylene]-1,3-dihydro-indol-2-one]",6.15,91.4%,5.89,–

# Continued, in another order:
pIC50 [2],SMILES,inhibition at 10 µM ([1]; Homo sapiens),pIC50 ([1]; Homo sapiens),pIC50 [1]
6.14,"CSc1ccc(NC=C2C(=O)Nc3ccc(Cl)cc32)cc1 [Example 138, 5-Chloro-3-[(4-methylsulfanyl-phenylamino)-methylene]-1,3-dihydro-indol-2-one]",80.9%,5.15,–
6.28,"O=C(O)CCc1cccc(NC=C2C(=O)Nc3ccc(Cl)cc32)c1 [Example 143, 3-{3-[(5-Chloro-2-oxo-1,2-dihydro-indol-3-ylidenemethyl)-amino]-phenyl}-propionic acid]",66.9%,5.12,–
6.21,"CCc1ccc(NC=C2C(=O)Nc3ccc(Cl)cc32)cc1 [Example 149, 5-Chloro-3-[(4-ethyl-phenylamino)-methylene]-1,3-dihydro-indol-2-one]",17.7%,–,–
6.52,"O=C1Nc2ccc(F)cc2C1=CNc1ccc2[nH]ccc2c1 [Example 162, 5-Fluoro-3-[(1 h-indol-5-ylamino)-methylene]-1,3-dihydro-indol-2-one]",89.9%,5.98,–
6.49,"O=C1Nc2ccc(F)cc2C1=CNc1ccc2cn[nH]c2c1 [Example 163, 5-Fluoro-3-[(1 h-indazol-6-ylamino)-methylene]-1,3-dihydro-indol-2-one]",95.3%,≥ 6.00,6.07
6.42,"COc1ccc(NC=C2C(=O)Nc3ccc(F)cc32)cc1O [Example 164, 5-Fluoro-3-[(3-hydroxy-4-methoxy-phenylamino)-methylene]-1,3-dihydro-indol-2-one]",98.8%,–,–
6.44,"O=C(O)CCc1ccc(NC=C2C(=O)Nc3ccc(F)cc32)cc1 [Example 165, 3-{4-[(5-Fluoro-2-oxo-1,2-dihydro-indol-3-ylidenemethyl)-amino]-phenyl}-propionic acid]",99.3%,5.87,–
6.18,"NS(=O)(=O)c1ccc(NC=C2C(=O)Nc3ccc(F)cc32)cc1 [Example 166, 4-[(5-Fluoro-2-oxo-1,2-dihydro-indol-3-ylidenemethyl)-amino]-benzenesulfonamide]",49.2%,–,–
6.85,"CN1CCN(c2ccc(NC=C3C(=O)Nc4ccc(F)cc43)cc2)CC1 [Example 168, 5-Fluoro-3-{[4-(4-methyl-piperazin-1-yl)-phenylamino]-methylene}-1,3-dihydro-indol-2-one]",94.3%,–,–
6.21,"O=C1Nc2ccc(F)cc2C1=CNc1ccccc1 [Example 169, 5-Fluoro-3-phenylaminomethylene-1,3-dihydro-indol-2-one]",93.4%,5.94,–
6.39,"NC(=O)c1ccc(NC=C2C(=O)Nc3ccc(F)cc32)cc1 [Example 170, 4-[(5-Fluoro-2-oxo-1,2-dihydro-indol-3-ylidenemethyl)-amino]-benzamide]",96.7%,≥ 6.00,6.23
6.37,"CSc1ccc(NC=C2C(=O)Nc3ccc(F)cc32)cc1 [Example 171, 5-Fluoro-3-[(4-methylsulfanyl-phenylamino)-methylene]-1,3-dihydro-indol-2-one]",38.1%,–,–
6.16,"COc1ccc(NC=C2C(=O)Nc3ccc(F)cc32)cc1F [Example 172, 5-Fluoro-3-[(3-fluoro-4-methoxy-phenylamino)-methylene]-1,3-dihydro-indol-2-one]",93.3%,5.85,–
6.28,"O=C1Nc2ccc(F)cc2C1=CNc1ccc2ncsc2c1 [Example 173, 3-(Benzothiazol-6-ylaminomethylene)-5-fluoro-1,3-dihydro-indol-2-one]",94.5%,5.83,–
6.08,"O=C(O)Cc1ccc(NC=C2C(=O)Nc3ccc(F)cc32)cc1 [Example 174, {4-[(5-Fluoro-2-oxo-1,2-dihydro-indol-3-ylidenemethyl)-amino]-phenyl}-acetic acid]",76.4%,5.22,–
6.15,"O=C(O)CCc1cccc(NC=C2C(=O)Nc3ccc(F)cc32)c1 [Example 175, 3-{3-[(5-Fluoro-2-oxo-1,2-dihydro-indol-3-ylidenemethyl)-amino]-phenyl}-propionic acid]",38%,–,–
6.10,"CCc1cccc(NC=C2C(=O)Nc3ccc(F)cc32)c1 [Example 176, 3-[(3-Ethyl-phenylamino)-methylene]-5-fluoro-1,3-dihydro-indol-2-one]",67.9%,5.60,–
6.12,"O=C1Nc2ccc(F)cc2C1=CNc1cccc(O)c1 [Example 177, 5-Fluoro-3-[(3-hydroxy-phenylamino)-methylene]-1,3-dihydro-indol-2-one]",98.2%,≥ 6.00,6.13
